From patent US12162858B2, “Quinoline derivatives as inhibitors of AXL/MER RTK and CSF1R” (QURIENT CO., LTD., priority 2018, dated 2024)
Read-outs that look alike come from different tables or passages of the source.

Legend:
CSF1R (M-NFS-60 cells) = assay: Cell Titer-Glo viability assay using M-NFS-60 cells; format: cell-based; conditions: Mus musculus, read-out: Cellular CSF1R activity by M-NFS-60 viability assay (IC50 activity range)
How it was run: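 M-NFS-60 cells grown with 62 ng/ml recombinant human M-CSF, seeded at 2×10^5 cells/well and incubated at 37 °C/5% CO2. Compounds given as 3-fold serial dilutions (10 doses); viability read by CellTiter-Glo luminescence, sigmoidal dose-response fit.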

CSF1R = CSF1R (Homo sapiens, UniProt P07333); assay: KINOMEscan competition binding assay for CSF1R; design: DNA tag for qPCR (not a peptide); host or cells: E. coli/T7 phage or HEK-293; conditions: for Kd: read-out: CSF1R kinase binding activity (Kd)
CSF1R, sequence (P07333 20-972): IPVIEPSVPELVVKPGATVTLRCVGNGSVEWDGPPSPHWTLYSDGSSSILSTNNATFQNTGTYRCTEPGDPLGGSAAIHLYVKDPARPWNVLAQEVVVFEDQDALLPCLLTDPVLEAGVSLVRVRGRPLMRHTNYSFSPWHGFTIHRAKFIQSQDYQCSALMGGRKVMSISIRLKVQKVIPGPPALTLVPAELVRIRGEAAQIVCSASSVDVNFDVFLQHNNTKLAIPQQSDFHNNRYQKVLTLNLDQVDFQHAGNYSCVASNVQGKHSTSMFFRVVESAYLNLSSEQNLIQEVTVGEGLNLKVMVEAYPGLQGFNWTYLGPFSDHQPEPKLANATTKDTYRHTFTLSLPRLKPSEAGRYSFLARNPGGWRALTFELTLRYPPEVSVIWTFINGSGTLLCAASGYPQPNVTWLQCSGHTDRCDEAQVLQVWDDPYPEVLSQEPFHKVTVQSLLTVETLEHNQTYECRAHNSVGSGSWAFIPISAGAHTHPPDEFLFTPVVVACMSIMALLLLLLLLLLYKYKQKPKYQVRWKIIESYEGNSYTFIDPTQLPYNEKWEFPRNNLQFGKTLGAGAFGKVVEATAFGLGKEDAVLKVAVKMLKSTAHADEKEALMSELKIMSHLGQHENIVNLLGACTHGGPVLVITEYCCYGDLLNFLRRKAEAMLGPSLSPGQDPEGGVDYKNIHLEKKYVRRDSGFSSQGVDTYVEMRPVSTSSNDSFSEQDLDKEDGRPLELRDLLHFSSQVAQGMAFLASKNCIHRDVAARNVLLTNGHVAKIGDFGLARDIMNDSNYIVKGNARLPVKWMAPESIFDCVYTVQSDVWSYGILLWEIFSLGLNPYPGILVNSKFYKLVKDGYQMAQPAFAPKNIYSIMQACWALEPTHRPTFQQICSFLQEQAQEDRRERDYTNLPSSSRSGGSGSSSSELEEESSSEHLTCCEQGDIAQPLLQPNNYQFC
How it was run: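 Values are either % inhibition at 0.1 uM, relative to DMSO (100% Ctrl) and a control compound (0% Ctrl), or Kd from an 11-point 3-fold series fitted with Hill slope −1. DNA-tagged kinase binds immobilized ligand beads with compound for 1 h at room temperature, and eluted kinase is measured by qPCR.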

[1] = read-out: CSF1R kinase binding activity, Percent (%) inhibition
[2] = read-out: CSF1R kinase binding activity, Range

Compound	inhibition at 0.1 µM (CSF1R; [1])	inhibition at 0.1 µM (CSF1R; [2])	Kd (CSF1R)	IC50 (CSF1R (M-NFS-60 cells))
CCCn1cc(OCCN(C)C)c(C(=O)Nc2ccc(Oc3ccnc4cc(OC)c(OC)cc34)cn2)n1 [Compound 177]				1 to 10 µM
COCCn1cc(OCC(F)(F)F)c(C(=O)Nc2ccc(Oc3ccnc4cc(OC)c(OC)cc34)cc2)n1 [Compound 61]	76%	50 to 80%		1 to 10 µM
COc1cc2nccc(Oc3ccc(NC(=O)c4nn(CCO)cc4OCC(F)(F)F)cc3C)c2cc1OC [Compound 56]	0%	< 50%		< 1 µM
COc1cc2nccc(Oc3ccc(NC(=O)c4nn(C5CCCCC5)cc4OCC(F)(F)F)nc3)c2cc1OC [Compound 69]	89%	≥ 80%		1 to 10 µM
COc1cc2nccc(Oc3ccc(NC(=O)c4nn(CC5CCCCC5)cc4OCC(F)(F)F)nc3)c2cc1OC [Compound 43]	94%	≥ 80%		< 1 µM
COc1cc2nccc(Oc3ccc(NC(=O)c4nn(C5CCCC5)cc4OCC(F)(F)F)c(F)c3)c2cc1OC [Compound 47]	91%	≥ 80%		< 1 µM
COc1cc2nccc(Oc3ccc(NC(=O)c4nn(C5CCOC5)cc4OCC(F)(F)F)cc3)c2cc1OC (stereo not drawn) [Compound 62]	54%	50 to 80%		1 to 10 µM
COc1cc2nccc(Oc3ccc(NC(=O)c4nn(C5CC5)cc4OCC4CNC4)nn3)c2cc1OC [Compound 172]	36%	< 50%		≥ 10 µM
COCCOc1cn(C2CC2)nc1C(=O)Nc1ccc(Oc2ccnc3cc(OC)c(OC)cc23)nn1 [Compound 171]	60%	50 to 80%		≥ 10 µM
COc1cc2nccc(Oc3ccc(NC(=O)c4nn(C5CCCC5)cc4OCC(F)(F)F)cc3)c2cc1OC [Compound 60]	75%	50 to 80%		1 to 10 µM
COc1cc2nccc(Oc3ccc(NC(=O)c4nn(C)cc4OCC(F)(F)F)c(F)c3)c2cc1OC [Compound 45]	93%	≥ 80%		1 to 10 µM
COc1cc2nccc(Oc3ccc(NC(=O)c4nn(CCO)cc4OCC(F)(F)F)cc3)c2cc1OC [Compound 59]	82%	≥ 80%		< 1 µM
COc1cc2nccc(Oc3ccc(NC(=O)c4nn(CC(C)C)cc4OCC(F)(F)F)cc3F)c2cc1OC [Compound 53]	71%	50 to 80%		< 1 µM
CCCn1cc(N(C)CC2CCOCC2)c(C(=O)Nc2ccc(Oc3ccnc4cc(OC)c(OC)cc34)cn2)n1 [Compound 34]				1 to 10 µM
COc1cc2nccc(Oc3ccc(NC(=O)c4nn(CC5CCOC5)cc4OCC(F)(F)F)nc3)c2cc1OC (stereo not drawn) [Compound 44]	82%	≥ 80%		< 1 µM
COc1cc2nccc(Oc3ccc(NC(=O)c4nn(C(C)C)c(C)c4OCC(F)(F)F)nc3)c2cc1OC [Compound 2]	89%	≥ 80%	0.1 to 0.5 µM	< 1 µM
COc1cc2nccc(Oc3ccc(NC(=O)c4nn(CCN)cc4OCC(F)(F)F)c(F)c3)c2cc1OC [Compound 75]	57%	50 to 80%		1 to 10 µM
COc1cc2nccc(Oc3ccc(NC(=O)c4nn(CC(C)O)cc4OCC4CN(C)C4)nc3)c2cc1OC (stereo not drawn) [Compound 174]	25%	< 50%		≥ 10 µM
COc1cc2nccc(Oc3ccc(NC(=O)c4nn(C5CC5)c(C(C)=O)c4OCC(F)(F)F)nc3)c2cc1OC [Compound 3]	71%	50 to 80%	0.1 to 0.5 µM	≥ 10 µM
COc1cc2nccc(Oc3ccc(NC(=O)c4cc(C5CC5)cnc4OCC(F)(F)F)nc3)c2cc1OC [Compound 178]				< 1 µM
COc1cc2nccc(Oc3ccc(NC(=O)c4nn(C5CCNC5)cc4OCC(F)(F)F)c(F)c3)c2cc1OC (stereo not drawn) [Compound 74]	39%	< 50%		1 to 10 µM
COc1cc2nccc(Oc3ccc(NC(=O)c4nn(C)cc4OCC(F)(F)F)cc3F)c2cc1OC [Compound 50]	80%	50 to 80%		1 to 10 µM
COc1cc2nccc(Oc3ccc(NC(=O)c4nn(C5CCCC5)cc4OCC(F)(F)F)nc3)c2cc1OC [Compound 40]	94%	≥ 80%		< 1 µM
COc1cc2nccc(Oc3ccc(NC(=O)c4nn(C5CC5)cc4OCCC(F)(F)F)nn3)c2cc1OC [Compound 173]	69%	50 to 80%		1 to 10 µM
COc1cc2nccc(Oc3ccc(NC(=O)c4nn(C5CCCC5)cc4OCC(F)(F)F)cc3F)c2cc1OC [Compound 52]	71%	50 to 80%		< 1 µM
COc1cc2nccc(Oc3ccc(NC(=O)c4sc(C5CC5)cc4OCC(F)(F)F)nc3)c2cc1OC [Compound 179]				< 1 µM

Second part, led by results:

inhibition at 0.1 µM (CSF1R; [1])	inhibition at 0.1 µM (CSF1R; [2])	Kd (CSF1R)	Compound	IC50 (CSF1R (M-NFS-60 cells))
97%	≥ 80%		COc1cc2nccc(Oc3ccc(NC(=O)c4nn(CC(C)=O)cc4OCC(F)(F)F)nc3)c2cc1OC [Compound 19]	< 1 µM
58%	50 to 80%		CCCn1cc(OCC(F)(F)F)c(C(=O)Nc2ccc(Oc3ccnc4cc(OC)c(OC)cc34)cc2C)n1 [Compound 27]	1 to 10 µM
87%	≥ 80%		CCCn1cc(OCCC(O)CO)c(C(=O)Nc2ccc(Oc3ccnc4cc(OC)c(OC)cc34)cn2)n1 (stereo not drawn) [Compound 15]	1 to 10 µM
95%	≥ 80%		COc1cc2nccc(Oc3ccc(NC(=O)c4nn(CCNC5CC5)cc4OCC(F)(F)F)nc3)c2cc1OC [Compound 168]	< 1 µM
96%	≥ 80%		COc1cc2nccc(Oc3ccc(NC(=O)c4nn(CCO)cc4OCC(F)(F)F)nc3)c2cc1OC [Compound 67]	1 to 10 µM
90%	≥ 80%		CCCn1cc(OCC(F)(F)F)c(C(=O)Nc2ccc(Oc3ccnc4cc(OC)c(OC)cc34)cc2F)n1 [Compound 28]	1 to 10 µM
95%	≥ 80%		CCCn1cc(OCC(F)(F)F)c(C(=O)Nc2ccc(Oc3ccnc4cc(OC)c(OC)cc34)nn2)n1 [Compound 32]	1 to 10 µM
95%	≥ 80%		COc1cc2nccc(Oc3ccc(NC(=O)c4nn(CC(C)(F)F)cc4OCC(F)(F)F)nc3)c2cc1OC [Compound 64]	1 to 10 µM
98%	≥ 80%		COc1cc2nccc(Oc3ccc(NC(=O)c4nn(CCCN)cc4OCC(F)(F)F)nc3)c2cc1OC [Compound 68]	1 to 10 µM
0%	< 50%		CCCn1cc(OCC2CCC2)c(C(=O)Nc2ccc(Oc3ccnc4cc(OC)c(OC(F)(F)F)cc34)cn2)n1 [Compound 167]	1 to 10 µM
94%	≥ 80%		CCCn1cc(NCC(F)(F)F)c(C(=O)Nc2ccc(Oc3ccnc4cc(OC)c(OC)cc34)cn2)n1 [Compound 23]	< 1 µM
95%	≥ 80%		COc1cc2nccc(Oc3ccc(NC(=O)c4nn(CC5CCC5)cc4OCC(F)(F)F)nc3)c2cc1OC [Compound 42]	< 1 µM
97%	≥ 80%		COc1cc2nccc(Oc3ccc(NC(=O)c4nn(CC(C)O)cc4OCC(F)(F)F)nc3)c2cc1OC (stereo not drawn) [Compound 17]	< 1 µM
93%	≥ 80%		COc1cc2nccc(Oc3ccc(NC(=O)c4nn(C(C)(C)C)cc4OCC(F)(F)F)nc3)c2cc1OC [Compound 22]	< 1 µM
87%	≥ 80%		CCCn1cc(OCC(F)(F)F)c(C(=O)Nc2ccc(Oc3ccnc4cc(OC)c(OC)cc34)cc2)n1 [Compound 38]	< 1 µM
99%	≥ 80%		COc1cc2nccc(Oc3ccc(NC(=O)c4nn(C[C@@H](C)O)cc4OCC(F)(F)F)nc3)c2cc1OC [Compound 29]	< 1 µM
88%	≥ 80%		COc1cc2nccc(Oc3ccc(NC(=O)c4nn(CC5CCCC5)cc4OCC(F)(F)F)nc3)c2cc1OC [Compound 71]	1 to 10 µM
95%	≥ 80%		CCCCn1cc(OCC(F)(F)F)c(C(=O)Nc2ccc(Oc3ccnc4cc(OC)c(OC)cc34)cn2)n1 [Compound 36]	< 1 µM
97%	≥ 80%		COc1cc2nccc(Oc3ccc(NC(=O)c4nn(CC5CNC5)cc4OCC(F)(F)F)nc3)c2cc1OC [Compound 73]	1 to 10 µM
95%	≥ 80%		COc1cc2nccc(Oc3ccc(NC(=O)c4nn(CC(C)C)cc4OCC(F)(F)F)nc3)c2cc1OC [Compound 21]	< 1 µM
96%	≥ 80%		COc1cc2nccc(Oc3ccc(NC(=O)c4nn(CCOC5CCC5)cc4OCC(F)(F)F)nc3)c2cc1OC [Compound 65]	1 to 10 µM
